One molecule from ChEMBL document CHEMBL3797068, “eCF309: a potent, selective and cell-permeable mTOR inhibitor” (Medchemcomm, 2016) can be followed below.

Activity calls are given as the source filed them. No cut-off for these calls is given here.

Assay [1] concerns the target T1, Epithelial discoidin domain-containing receptor 1 (Homo sapiens, UniProt Q08345). Briefly: Inhibition of human DDR1 using (poly [Glu, Tyr] 4:1) as substrate assessed as incorporation of 33P in substrate by [gamma33P] ATP-based kinase assay.
In assay [2] the target is Tyrosine-protein kinase ABL1 (Homo sapiens, UniProt P00519). Briefly: Inhibition of human ABL using (poly [Glu, Tyr] 4:1) as substrate assessed as incorporation of 33P in substrate by [gamma33P] ATP-based kinase assay.
Sequence of Tyrosine-protein kinase ABL1 (P00519 whole entry): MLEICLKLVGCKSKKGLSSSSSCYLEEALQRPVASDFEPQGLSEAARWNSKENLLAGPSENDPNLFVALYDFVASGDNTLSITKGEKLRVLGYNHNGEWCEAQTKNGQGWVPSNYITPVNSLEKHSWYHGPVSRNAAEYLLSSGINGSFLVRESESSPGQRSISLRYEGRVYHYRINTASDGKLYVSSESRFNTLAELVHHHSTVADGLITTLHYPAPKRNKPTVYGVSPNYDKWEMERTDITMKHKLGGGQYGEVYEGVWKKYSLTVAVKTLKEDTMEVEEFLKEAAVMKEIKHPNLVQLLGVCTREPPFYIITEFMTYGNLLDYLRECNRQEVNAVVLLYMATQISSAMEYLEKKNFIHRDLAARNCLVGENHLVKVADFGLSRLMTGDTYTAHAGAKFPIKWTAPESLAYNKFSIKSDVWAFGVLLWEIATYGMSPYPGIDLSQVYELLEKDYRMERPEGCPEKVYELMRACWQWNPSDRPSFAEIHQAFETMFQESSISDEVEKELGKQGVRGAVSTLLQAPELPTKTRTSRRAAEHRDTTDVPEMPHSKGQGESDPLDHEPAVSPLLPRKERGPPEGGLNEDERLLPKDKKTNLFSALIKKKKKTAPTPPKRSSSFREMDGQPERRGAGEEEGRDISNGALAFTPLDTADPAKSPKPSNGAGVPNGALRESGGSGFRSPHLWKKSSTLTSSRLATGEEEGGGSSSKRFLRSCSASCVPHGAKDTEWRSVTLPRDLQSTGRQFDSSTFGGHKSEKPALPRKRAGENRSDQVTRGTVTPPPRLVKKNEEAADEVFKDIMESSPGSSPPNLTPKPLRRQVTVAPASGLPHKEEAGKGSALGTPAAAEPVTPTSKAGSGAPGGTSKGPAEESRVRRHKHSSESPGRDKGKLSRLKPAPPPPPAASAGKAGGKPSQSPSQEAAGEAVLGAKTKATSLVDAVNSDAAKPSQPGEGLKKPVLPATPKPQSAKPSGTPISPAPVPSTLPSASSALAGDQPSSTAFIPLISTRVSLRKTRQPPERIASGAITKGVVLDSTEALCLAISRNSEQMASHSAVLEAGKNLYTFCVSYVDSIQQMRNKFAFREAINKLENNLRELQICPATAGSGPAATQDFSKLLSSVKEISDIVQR
The target in assay [3] is Platelet-derived growth factor receptor alpha (Homo sapiens, UniProt P16234). Kind of assay: Inhibition of human PDGFRalpha using (poly [Glu, Tyr] 4:1) as substrate assessed as incorporation of 33P in substrate by [gamma33P] ATP-based kinase assay.
Assay [4] addresses Tyrosine-protein kinase Fyn (Homo sapiens, UniProt P06241). Kind of assay: Inhibition of human FYN using (poly [Glu, Tyr] 4:1) as substrate assessed as incorporation of 33P in substrate by [gamma33P] ATP-based kinase assay.
For assay [5], the target named is Mast/stem cell growth factor receptor Kit (Homo sapiens, UniProt P10721). Briefly: Inhibition of human KIT using (poly [Glu, Tyr] 4:1) as substrate assessed as incorporation of 33P in substrate by [gamma33P] ATP-based kinase assay.
Assay [6] deals with Proto-oncogene tyrosine-protein kinase receptor Ret (Homo sapiens, UniProt P07949). Briefly: Inhibition of human RET using (poly [Glu, Tyr] 4:1) as substrate assessed as incorporation of 33P in substrate by [gamma33P] ATP-based kinase assay.
In assay [7] the target is Proto-oncogene tyrosine-protein kinase Src (Homo sapiens, UniProt P12931). Briefly: Inhibition of human SRC using (poly [Glu, Tyr] 4:1) as substrate assessed as incorporation of 33P in substrate by [gamma33P] ATP-based kinase assay.
For assay [8], the target named is Phosphatidylinositol 4,5-bisphosphate 3-kinase catalytic subunit beta isoform (Homo sapiens, UniProt P42338). Kind of assay: Inhibition of PI3Kbeta (unknown origin) using (poly [Glu, Tyr] 4:1) as substrate assessed as incorporation of 33P in substrate by [gamma33P] ATP-based kinase assay.
Assay [9] addresses T2, Phosphatidylinositol 4,5-bisphosphate 3-kinase catalytic subunit gamma isoform (Homo sapiens, UniProt P48736). Kind of assay: Inhibition of PI3Kgamma (unknown origin) using (poly [Glu, Tyr] 4:1) as substrate assessed as incorporation of 33P in substrate by [gamma33P] ATP-based kinase assay.
The target in assay [10] is T3, Phosphatidylinositol 4,5-bisphosphate 3-kinase catalytic subunit delta isoform (Homo sapiens, UniProt O00329).
T3 sequence (O00329 whole entry): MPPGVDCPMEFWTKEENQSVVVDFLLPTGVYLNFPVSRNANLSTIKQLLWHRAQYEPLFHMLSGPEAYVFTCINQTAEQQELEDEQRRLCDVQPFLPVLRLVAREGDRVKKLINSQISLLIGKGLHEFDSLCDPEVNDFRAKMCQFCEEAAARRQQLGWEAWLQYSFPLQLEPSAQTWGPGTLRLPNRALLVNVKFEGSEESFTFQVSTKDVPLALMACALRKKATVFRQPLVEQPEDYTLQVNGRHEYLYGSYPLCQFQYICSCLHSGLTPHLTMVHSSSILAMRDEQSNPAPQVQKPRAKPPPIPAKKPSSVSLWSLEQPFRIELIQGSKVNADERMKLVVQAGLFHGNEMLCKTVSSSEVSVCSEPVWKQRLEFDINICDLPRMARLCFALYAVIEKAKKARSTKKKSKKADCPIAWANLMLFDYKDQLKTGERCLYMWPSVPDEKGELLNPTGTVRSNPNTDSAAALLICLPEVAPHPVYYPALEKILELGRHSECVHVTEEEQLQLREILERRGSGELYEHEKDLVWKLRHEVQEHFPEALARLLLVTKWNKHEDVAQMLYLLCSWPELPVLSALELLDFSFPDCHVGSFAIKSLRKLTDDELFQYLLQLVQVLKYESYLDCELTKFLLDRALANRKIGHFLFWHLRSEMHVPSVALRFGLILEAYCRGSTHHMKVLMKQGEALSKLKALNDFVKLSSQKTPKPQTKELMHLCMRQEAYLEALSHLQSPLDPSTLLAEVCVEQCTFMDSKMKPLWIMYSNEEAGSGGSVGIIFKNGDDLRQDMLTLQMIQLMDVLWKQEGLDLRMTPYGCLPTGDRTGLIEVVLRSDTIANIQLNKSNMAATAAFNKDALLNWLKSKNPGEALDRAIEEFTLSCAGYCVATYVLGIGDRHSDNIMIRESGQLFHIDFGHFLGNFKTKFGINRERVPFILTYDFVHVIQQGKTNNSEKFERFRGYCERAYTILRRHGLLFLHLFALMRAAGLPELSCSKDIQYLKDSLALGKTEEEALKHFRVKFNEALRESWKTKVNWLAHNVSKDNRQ
Briefly: Inhibition of PI3Kdelta (unknown origin) using (poly [Glu, Tyr] 4:1) as substrate assessed as incorporation of 33P in substrate by [gamma33P] ATP-based kinase assay.

The target of assay [11] is T4, Phosphatidylinositol 4,5-bisphosphate 3-kinase catalytic subunit alpha isoform (Homo sapiens, UniProt P42336). Kind of assay: Inhibition of PI3Kalpha (unknown origin) using PIP2 as substrate by HTRF assay. (TR-FRET usually uses a lanthanide donor and a delayed reading to cut background.)
T4 sequence (P42336 whole entry, canonical isoform): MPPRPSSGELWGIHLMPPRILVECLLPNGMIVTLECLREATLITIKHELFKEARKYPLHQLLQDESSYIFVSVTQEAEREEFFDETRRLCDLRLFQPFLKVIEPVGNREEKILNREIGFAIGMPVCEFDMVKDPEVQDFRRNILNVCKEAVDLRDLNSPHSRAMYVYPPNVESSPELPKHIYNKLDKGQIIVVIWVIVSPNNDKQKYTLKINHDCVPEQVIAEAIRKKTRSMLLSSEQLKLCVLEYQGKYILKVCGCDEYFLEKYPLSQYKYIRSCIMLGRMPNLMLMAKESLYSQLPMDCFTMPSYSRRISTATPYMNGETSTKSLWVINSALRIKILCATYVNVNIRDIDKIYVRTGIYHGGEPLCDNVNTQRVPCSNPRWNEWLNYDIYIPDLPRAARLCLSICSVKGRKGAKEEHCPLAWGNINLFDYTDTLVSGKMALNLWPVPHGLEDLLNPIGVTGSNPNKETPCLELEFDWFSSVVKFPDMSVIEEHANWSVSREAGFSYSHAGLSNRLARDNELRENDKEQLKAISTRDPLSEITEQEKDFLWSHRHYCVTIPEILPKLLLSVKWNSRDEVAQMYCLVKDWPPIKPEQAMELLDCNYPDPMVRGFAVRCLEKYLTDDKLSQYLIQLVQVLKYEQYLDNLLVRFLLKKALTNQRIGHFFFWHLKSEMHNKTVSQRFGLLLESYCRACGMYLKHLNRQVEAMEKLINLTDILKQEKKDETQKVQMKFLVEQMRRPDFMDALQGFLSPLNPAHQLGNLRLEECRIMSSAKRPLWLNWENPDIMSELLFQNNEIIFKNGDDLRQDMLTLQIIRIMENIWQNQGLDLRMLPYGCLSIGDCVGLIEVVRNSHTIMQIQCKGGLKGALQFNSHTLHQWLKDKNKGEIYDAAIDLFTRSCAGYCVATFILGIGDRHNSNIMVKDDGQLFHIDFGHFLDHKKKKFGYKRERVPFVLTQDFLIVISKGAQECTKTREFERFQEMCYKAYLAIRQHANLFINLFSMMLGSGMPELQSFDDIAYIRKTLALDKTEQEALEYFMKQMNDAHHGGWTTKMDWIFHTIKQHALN
Assay [12] concerns the target T3, Phosphatidylinositol 4,5-bisphosphate 3-kinase catalytic subunit delta isoform. Briefly: Inhibition of PI3Kdelta (unknown origin) using PIP2 as substrate by HTRF assay.
A further assay relates to MCF7. Briefly: Cytotoxicity against human MCF7 cells after 5 days by Presto blue reagent-based fluorescence analysis. Type of assay: functional, cell-based. As to conditions: MCF7, 120 h.
Assay [13] concerns the target T4, Phosphatidylinositol 4,5-bisphosphate 3-kinase catalytic subunit alpha isoform. Kind of assay: Inhibition of human PI3Kalpha at 10 uM by kinome profiling method.
The target in assay [14] is Serine/threonine-protein kinase mTOR (Homo sapiens, UniProt P42345). Kind of assay: Inhibition of human mTOR at 10 uM by kinome profiling method.
The target of assay [15] is T2, Phosphatidylinositol 4,5-bisphosphate 3-kinase catalytic subunit gamma isoform. Briefly: Inhibition of human PI3Kgamma at 10 uM by kinome profiling method.
For assay [16], the target named is DNA-dependent protein kinase catalytic subunit (Homo sapiens, UniProt P78527). Kind of assay: Inhibition of human DNA-PK at 10 uM by kinome profiling method.
Assay [17] addresses T1, Epithelial discoidin domain-containing receptor 1. Kind of assay: Inhibition of human DDR1 at 10 uM by kinome profiling method.
The nature of assay [18]: Cytotoxicity against human PC3 cells after 5 days by Presto blue reagent-based spectrofluorometric analysis. The conditions noted are these: PC-3, 120 h. Type of assay: functional, cell-based.
Assay [19] can be described thus: Cell cycle arrest in human PC3 cells assessed as increase in G0/G1 population after 24 hrs by Hoechst 33342 staining-based fluorescence analysis. It is filed as functional. The conditions noted are these: PC-3.
For assay [20], the target named is T5, mTORC1 (Homo sapiens) (UniProt P42345+Q8N122+Q9BVC4). Briefly: Inhibition of mTORC1 in human MCF7 cells assessed as reduction in phosphorylated S6 preincubated for 30 mins followed by serum stimulation for 1 hr by Western blot analysis. Type of assay: cell-based. A general note: In western blotting, separated proteins are transferred to a membrane and probed.
T5 sequence (Q8N122 whole entry, looked up, other chains not shown): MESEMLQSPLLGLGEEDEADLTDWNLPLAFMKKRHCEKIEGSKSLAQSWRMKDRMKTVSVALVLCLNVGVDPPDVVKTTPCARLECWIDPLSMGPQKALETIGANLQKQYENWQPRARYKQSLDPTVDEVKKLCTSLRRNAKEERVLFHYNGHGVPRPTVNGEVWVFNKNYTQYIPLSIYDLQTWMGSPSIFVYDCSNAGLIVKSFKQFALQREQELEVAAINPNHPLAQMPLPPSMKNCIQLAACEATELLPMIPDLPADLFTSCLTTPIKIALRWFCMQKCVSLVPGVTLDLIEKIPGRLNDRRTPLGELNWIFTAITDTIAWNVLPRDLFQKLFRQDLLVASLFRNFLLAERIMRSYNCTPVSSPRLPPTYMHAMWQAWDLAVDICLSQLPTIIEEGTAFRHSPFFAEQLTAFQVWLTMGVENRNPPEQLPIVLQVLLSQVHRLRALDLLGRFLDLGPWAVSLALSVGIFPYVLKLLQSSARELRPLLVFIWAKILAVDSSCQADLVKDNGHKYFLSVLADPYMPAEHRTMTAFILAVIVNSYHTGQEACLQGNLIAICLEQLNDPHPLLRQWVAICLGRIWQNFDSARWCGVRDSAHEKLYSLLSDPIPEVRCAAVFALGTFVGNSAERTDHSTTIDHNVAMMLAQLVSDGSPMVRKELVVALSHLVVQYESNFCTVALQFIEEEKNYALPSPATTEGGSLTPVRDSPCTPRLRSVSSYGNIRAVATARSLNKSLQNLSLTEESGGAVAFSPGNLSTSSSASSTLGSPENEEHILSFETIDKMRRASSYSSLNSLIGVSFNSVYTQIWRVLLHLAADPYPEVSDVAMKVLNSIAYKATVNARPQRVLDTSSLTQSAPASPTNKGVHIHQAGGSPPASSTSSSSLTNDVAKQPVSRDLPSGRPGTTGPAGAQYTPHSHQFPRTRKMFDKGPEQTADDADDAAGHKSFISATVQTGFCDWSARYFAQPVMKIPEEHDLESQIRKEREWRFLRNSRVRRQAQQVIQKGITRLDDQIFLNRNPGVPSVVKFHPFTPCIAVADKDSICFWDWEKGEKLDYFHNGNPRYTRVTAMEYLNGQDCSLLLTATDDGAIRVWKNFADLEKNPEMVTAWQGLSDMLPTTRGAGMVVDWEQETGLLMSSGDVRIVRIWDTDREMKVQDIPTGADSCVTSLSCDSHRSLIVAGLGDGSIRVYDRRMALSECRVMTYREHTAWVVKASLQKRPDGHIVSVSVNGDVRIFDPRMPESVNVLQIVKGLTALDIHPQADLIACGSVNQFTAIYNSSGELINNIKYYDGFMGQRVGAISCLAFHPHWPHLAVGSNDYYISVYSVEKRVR
T5 sequence (Q9BVC4 whole entry, looked up, other chains not shown): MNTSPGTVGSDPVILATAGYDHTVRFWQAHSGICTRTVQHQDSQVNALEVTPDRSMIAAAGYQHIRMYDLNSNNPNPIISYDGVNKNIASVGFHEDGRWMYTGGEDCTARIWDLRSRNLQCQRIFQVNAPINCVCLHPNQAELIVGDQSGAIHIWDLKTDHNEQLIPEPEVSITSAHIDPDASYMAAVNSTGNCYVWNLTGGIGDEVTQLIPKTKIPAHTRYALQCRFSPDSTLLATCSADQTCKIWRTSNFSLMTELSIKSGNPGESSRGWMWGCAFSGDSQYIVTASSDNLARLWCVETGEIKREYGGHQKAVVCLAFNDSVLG

The target of assay [21] is T5, mTORC1 (Homo sapiens). Kind of assay: Inhibition of mTORC1 in human MCF7 cells assessed as reduction in phosphorylated S6 at 30 nM preincubated for 30 mins followed by serum stimulation for 1 hr by Western blot analysis. Type of assay: cell-based.

T1 sequence (Q08345 whole entry, the tested form may be a part): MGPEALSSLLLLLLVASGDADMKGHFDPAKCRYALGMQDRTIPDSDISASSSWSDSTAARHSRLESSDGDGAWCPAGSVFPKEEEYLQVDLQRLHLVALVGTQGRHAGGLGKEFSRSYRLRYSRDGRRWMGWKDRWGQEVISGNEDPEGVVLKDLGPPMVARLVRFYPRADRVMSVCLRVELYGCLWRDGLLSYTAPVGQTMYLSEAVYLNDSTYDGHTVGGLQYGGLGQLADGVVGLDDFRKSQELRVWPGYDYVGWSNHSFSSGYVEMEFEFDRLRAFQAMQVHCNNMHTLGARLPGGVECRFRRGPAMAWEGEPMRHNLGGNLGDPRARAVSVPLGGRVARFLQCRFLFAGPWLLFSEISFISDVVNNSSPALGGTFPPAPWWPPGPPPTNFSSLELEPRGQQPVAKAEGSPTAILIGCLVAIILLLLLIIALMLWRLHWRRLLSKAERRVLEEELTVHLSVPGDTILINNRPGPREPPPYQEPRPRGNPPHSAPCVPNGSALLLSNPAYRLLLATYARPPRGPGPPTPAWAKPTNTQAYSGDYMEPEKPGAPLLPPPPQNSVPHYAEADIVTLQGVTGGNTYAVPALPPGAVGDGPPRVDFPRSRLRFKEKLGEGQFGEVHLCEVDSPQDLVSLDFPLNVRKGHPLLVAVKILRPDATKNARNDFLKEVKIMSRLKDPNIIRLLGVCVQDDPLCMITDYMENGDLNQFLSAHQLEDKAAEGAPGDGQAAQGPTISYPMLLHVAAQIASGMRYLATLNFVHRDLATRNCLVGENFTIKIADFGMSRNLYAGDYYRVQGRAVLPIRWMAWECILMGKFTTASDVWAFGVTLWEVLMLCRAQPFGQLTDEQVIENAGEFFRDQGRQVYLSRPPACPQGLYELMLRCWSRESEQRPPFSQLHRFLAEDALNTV

By IC50 is commonly meant the concentration that gives 50% inhibition. One may read the EC50 as the concentration at which the effect is half-maximal. Read a high EC50 as weaker potency. By inhibition is commonly meant the percentage by which the read-out fell short of the control. As for `CCOC(Cn1nc(-c2ccc3oc(N)nc3c2)c2c(N)ncnc21)OCC`, the IC50 in assay [1] was 2110 nM; in [2], more than 100000 nM; in assay [3], more than 100000 nM; in [4], more than 100000 nM; in assay [5], more than 100000 nM; in assay [6], more than 100000 nM. Besides, the IC50 in assay [7] is more than 100000 nM; in [8], more than 100000 nM; in assay [9], 1340 nM; in assay [10], 1840 nM; in assay [11] it was 981 nM; in [12], 1840 nM. For the same molecule, the EC50 in the assay with MCF7 came to 8 nM; in assay [18], 37 nM. Moreover, the inhibition is 65% in assay [13]; 99% in assay [14]; 85% in [15]; 90% in assay [16]; 77% in assay [17]; “Dose-dependent effect” at mTORC1 (Homo sapiens) [20]. The inhibition at mTORC1 (Homo sapiens) [21] was 100%. Also, the outcome in assay [19] was Active.
